# Measurements as given in ChEMBL document CHEMBL1201862, “PubChem BioAssay data set” (2004).
# The source made the active and inactive calls.
# Key:
# Cytochrome P450 2D6 [1] = target: T1, Cytochrome P450 2D6 (Homo sapiens, UniProt P10635); experiment: qHTS Assay for Inhibitors and Substrates of Cytochrome P450 2D6. [Related pubchem assays: 410 ]; format: ADME; details: read-out: Potency
# Mucolipin-3 = target: T2, Mucolipin-3 (Homo sapiens, UniProt Q8TDD5); experiment: Dose response cell-based high-throughput screening assay for agonists of the transient receptor potential channel ML3 (TRPML3). [Related pubchem assays: 1526, 1424, 1448 ]; format: functional
# T2 sequence (Q8TDD5 whole entry): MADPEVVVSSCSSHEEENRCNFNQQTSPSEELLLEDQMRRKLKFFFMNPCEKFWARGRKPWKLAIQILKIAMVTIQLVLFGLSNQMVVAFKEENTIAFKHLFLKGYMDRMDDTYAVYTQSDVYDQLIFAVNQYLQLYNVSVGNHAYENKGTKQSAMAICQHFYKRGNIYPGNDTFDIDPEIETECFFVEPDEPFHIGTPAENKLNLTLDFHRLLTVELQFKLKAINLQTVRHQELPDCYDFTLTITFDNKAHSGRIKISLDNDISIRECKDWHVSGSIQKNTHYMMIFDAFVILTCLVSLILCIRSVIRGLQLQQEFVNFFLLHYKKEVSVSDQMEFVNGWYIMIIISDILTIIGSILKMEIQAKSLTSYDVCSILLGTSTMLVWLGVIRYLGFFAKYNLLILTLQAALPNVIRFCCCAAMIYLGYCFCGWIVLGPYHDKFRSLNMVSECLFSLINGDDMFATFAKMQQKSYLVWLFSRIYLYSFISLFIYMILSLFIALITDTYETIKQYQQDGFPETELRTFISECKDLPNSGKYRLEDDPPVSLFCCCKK
# Ion channel NompC = Ion channel NompC (Danio rerio, UniProt Q7T1G6); experiment: Fluorescence counterscreen assay for TRPML3 agonists: dose response cell-based high-throughput screening assay to identify agonists of the transient receptor potential channel N1 (TRPN1). [Related pubchem assays: 1526, 1424, 1448 ]; format: functional
# Aminopeptidase N = target: T3, Aminopeptidase N (Plasmodium falciparum FcB1/Columbia, UniProt O96935); experiment: malaria alanyl aminopeptidase activity blockers – biochemical, fluorogenic H-Leu-NHMec substrate, 1536-well (AID 1445); set-up: species or system Plasmodium falciparum 3D7, 3D7
# T3 sequence (O96935 whole entry): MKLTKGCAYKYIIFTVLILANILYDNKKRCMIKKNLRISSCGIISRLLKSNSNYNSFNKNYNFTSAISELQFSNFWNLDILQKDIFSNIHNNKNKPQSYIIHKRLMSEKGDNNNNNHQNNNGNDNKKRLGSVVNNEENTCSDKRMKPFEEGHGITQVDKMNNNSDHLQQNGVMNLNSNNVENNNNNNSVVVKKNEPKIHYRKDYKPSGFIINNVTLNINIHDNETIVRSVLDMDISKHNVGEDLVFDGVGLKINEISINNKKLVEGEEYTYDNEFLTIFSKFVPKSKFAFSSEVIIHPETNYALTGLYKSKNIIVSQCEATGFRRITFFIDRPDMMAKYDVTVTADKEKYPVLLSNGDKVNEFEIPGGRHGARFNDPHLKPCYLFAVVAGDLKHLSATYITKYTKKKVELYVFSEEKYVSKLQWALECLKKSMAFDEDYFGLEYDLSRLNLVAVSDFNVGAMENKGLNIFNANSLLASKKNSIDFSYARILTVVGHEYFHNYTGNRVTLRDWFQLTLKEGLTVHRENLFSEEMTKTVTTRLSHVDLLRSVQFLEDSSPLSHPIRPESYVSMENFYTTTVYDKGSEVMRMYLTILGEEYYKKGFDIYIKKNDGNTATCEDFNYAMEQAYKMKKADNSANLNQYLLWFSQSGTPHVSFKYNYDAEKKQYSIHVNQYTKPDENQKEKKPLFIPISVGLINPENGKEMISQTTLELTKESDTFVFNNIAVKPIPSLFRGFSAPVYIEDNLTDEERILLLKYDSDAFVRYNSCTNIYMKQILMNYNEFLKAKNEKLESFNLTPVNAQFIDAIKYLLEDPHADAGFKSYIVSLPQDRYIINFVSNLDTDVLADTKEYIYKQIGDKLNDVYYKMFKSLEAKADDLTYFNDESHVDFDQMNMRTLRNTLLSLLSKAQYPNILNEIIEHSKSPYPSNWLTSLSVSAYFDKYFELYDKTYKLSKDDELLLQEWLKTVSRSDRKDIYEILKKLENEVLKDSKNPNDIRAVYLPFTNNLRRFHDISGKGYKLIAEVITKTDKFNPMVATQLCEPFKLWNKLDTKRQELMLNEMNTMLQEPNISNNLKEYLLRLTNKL
# [2] = target: Polyadenylate-binding protein 1 (Homo sapiens, UniProt P11940); experiment: blockers of PABP interaction with poly(A) – biochemical, fluorescence polarization, […] (AID 2014)
# [3] = target: Eukaryotic translation initiation factor 4H (Homo sapiens, UniProt Q15056); experiment: eIF4H binding inhibition – biochemical, uHTS, fluorescence polarization, translation initiation inhibitor project, primary screen (AID 2012)
# [4] = target: FAD-linked sulfhydryl oxidase ALR (Homo sapiens, UniProt P55789); experiment: ALR-catalysed DTT oxidation blockers – biochemical, H2O2 detection, luminescence, cherry-pick, dose response (AID 493248)
# Cytochrome P450 3A4 = Cytochrome P450 3A4 (Homo sapiens, UniProt P08684); details: Potency;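 note: confirmatory qHTS run detecting inhibitors and substrates of CYP3A4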
# [5] = target: Glucose-6-phosphate 1-dehydrogenase (Homo sapiens, UniProt P11413); experiment: inhibition of Homo sapiens G6PD, dose series – biochemical, fluorescence, selectivity assay for P. falciparum G6PD inhibitor project, dose response (AID 504792); format: functional
# Large T antigen = Large T antigen (Simian virus 40, UniProt P03070); format: functional, Betapolyomavirus macacae;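 note: Confirmatory-stage PubChem screen for compounds that inhibit SV40 T antigen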
# [6] = target: Peroxisome proliferator-activated receptor gamma/Nuclear receptor coactivator 3 (Homo sapiens, UniProt P37231); format: functional;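 note: agonist potency for raising coactivator recruitment to the receptor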
# [7] = target: Peroxisome proliferator-activated receptor gamma/Nuclear receptor coactivator 1 (Homo sapiens, UniProt P37231); format: functional;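 note: agonist potency as compounds enhance coactivator SRC-1 recruitment to PPARgamma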
# [8] = target: Peroxisome proliferator-activated receptor gamma/Nuclear receptor coactivator 2 (Homo sapiens, UniProt P37231); format: functional;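 note: agonist potency for raising coactivator recruitment to the receptor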
# Estrogen receptor beta [9] = target: T4, Estrogen receptor beta (Homo sapiens, UniProt Q92731);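 note: recombinant ER-beta bound to coactivator SRC1 peptide in presence of estradiol agonist; inhibitors block coactivator peptide binding and lower the FRET signal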
# Estrogen receptor beta [10] = target: T4, Estrogen receptor beta; experiment: blockers of SRC-3 recruitment to ERβ – biochemical, ELISA, streptavidin-HRP readout, orthogonal assay, confirmation (AID 1060)
# [11] = Trypanosoma cruzi growth suppression in host cells – NIH3T3 host cells, beta-gal luminescence, confirmation (AID 2044); format: functional, cell-based;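 note: intracellular parasites grown in NIH/3T3 mouse fibroblasts as host cells; luminescent beta-galactosidase reporter signal from transgenic T. cruzi replicating inside host cells; inhibitors lower the luminescence signal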
# Streptococcus = experiment: GAS UMAA2166 growth inhibition – luminescence, BacTiterGlo, counter-screen for streptokinase expression inhibitor project, dose response (AID 1915); format: functional, organism-based;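 note: potency for reduction of bacterial viability or growth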
# [12] = NIH3T3 cell viability loss – ATP luminescence, mouse fibroblasts, counter-screen, dose response (AID 2010); format: functional, cell-based;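 note: cells exposed to compound for about 90 hours before reading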
# Streptokinase A = target: T5, Streptokinase A (Streptococcus pyogenes serotype M1, UniProt P10520); experiment: viability-normalized secreted streptokinase activity reduction – plasminogen activation absorbance, OD405, dose response (AID 1914); format: functional, Streptococcus pyogenes M1 GAS;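 note: secreted streptokinase activity via plasminogen activation per viability signal from cell pellet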
# T5 sequence (P10520 whole entry): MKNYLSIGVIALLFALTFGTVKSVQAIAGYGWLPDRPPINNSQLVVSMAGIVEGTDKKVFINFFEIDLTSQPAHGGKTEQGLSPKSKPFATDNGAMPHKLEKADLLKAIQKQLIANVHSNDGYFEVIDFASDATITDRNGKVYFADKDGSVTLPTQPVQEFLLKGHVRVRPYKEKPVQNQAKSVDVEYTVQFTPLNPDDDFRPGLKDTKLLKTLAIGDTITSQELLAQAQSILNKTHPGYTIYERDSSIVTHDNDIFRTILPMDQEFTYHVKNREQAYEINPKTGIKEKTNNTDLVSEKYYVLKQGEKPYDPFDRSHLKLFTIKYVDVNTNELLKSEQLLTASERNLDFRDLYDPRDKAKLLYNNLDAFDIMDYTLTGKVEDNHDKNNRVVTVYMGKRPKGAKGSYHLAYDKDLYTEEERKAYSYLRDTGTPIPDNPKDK
# [13] = system: Streptococcus sp. 'group A'; experiment: Streptococcus pyogenes SK(-)GAS viability under kanamycin – luminescence, BacTiterGlo, confirmation, counter-screen for streptokinase expression inhibitor project, dose response (AID 1900); format: functional, organism-based
# [14] = target: T6, Nucleotide-binding oligomerization domain-containing protein 1 (Homo sapiens, UniProt Q9Y239); experiment: blockers of NOD1 pathway activity – revised, SAR follow-up (AID 2333); format: functional
# T6 sequence (Q9Y239 whole entry): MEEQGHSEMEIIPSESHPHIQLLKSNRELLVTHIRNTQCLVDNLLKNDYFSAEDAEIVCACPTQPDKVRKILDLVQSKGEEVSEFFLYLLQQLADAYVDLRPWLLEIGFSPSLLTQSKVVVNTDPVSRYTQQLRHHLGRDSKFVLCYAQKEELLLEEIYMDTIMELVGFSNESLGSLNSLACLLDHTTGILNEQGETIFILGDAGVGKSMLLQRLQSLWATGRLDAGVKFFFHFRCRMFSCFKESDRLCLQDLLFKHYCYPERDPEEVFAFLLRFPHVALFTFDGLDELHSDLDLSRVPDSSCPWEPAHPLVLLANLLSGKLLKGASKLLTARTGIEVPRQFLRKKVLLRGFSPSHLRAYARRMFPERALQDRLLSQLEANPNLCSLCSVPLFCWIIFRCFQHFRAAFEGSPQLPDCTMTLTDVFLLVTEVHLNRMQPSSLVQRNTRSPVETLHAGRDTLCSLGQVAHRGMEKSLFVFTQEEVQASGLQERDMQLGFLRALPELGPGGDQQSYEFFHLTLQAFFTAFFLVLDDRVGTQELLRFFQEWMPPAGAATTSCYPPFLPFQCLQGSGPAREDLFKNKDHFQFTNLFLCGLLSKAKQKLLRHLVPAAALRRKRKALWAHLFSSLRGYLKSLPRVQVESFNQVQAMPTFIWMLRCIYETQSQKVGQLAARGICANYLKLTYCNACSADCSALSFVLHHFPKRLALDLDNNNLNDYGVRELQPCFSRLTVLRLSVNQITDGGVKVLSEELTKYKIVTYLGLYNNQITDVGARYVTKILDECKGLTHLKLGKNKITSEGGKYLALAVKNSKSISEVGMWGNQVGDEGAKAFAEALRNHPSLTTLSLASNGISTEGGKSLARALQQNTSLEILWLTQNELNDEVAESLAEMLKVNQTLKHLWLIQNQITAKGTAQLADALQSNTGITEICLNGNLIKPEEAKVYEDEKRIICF
# Tumor necrosis factor = Tumor necrosis factor (Homo sapiens, UniProt P01375); experiment: analog potency on TNFa NF-kB signaling – cell-based, revised, SAR follow-up (AID 2337); format: functional
# HEK293 = experiment: cells; details: Homo sapiens;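 note: cells exposed to compound for 14 hours overnight before viability readout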
# [15] = target: Nucleotide-binding oligomerization domain-containing protein 2 (Homo sapiens, UniProt Q9HC29); experiment: PubChem AID 2334; format: functional
# Cytochrome P450 2C19 = Cytochrome P450 2C19 (Homo sapiens, UniProt P33261); experiment: Cytochrome panel assay with activity outcomes. Panel member name: p450-cyp2c19 Compounds with AC50 equal or less than 10 uM are considered active; format: functional; details: read-out: AC50
# Cytochrome P450 2D6 [16] = target: T1, Cytochrome P450 2D6
# T1 sequence (P10635 whole entry): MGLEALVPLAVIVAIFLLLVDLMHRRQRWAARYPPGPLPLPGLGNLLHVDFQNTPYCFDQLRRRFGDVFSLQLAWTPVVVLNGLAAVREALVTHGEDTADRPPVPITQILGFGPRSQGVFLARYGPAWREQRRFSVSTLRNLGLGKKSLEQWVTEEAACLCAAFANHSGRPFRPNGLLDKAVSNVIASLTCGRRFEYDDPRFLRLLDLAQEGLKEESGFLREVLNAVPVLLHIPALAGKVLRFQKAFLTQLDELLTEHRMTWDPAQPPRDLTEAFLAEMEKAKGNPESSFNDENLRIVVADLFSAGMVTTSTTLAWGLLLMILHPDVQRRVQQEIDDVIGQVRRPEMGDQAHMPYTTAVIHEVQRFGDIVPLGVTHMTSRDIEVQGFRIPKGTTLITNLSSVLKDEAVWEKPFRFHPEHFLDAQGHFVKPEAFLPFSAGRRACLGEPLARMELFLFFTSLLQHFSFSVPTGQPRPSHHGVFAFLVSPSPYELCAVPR
# Sequence of Peroxisome proliferator-activated receptor gamma/Nuclear receptor coactivator 1 (P37231 whole entry): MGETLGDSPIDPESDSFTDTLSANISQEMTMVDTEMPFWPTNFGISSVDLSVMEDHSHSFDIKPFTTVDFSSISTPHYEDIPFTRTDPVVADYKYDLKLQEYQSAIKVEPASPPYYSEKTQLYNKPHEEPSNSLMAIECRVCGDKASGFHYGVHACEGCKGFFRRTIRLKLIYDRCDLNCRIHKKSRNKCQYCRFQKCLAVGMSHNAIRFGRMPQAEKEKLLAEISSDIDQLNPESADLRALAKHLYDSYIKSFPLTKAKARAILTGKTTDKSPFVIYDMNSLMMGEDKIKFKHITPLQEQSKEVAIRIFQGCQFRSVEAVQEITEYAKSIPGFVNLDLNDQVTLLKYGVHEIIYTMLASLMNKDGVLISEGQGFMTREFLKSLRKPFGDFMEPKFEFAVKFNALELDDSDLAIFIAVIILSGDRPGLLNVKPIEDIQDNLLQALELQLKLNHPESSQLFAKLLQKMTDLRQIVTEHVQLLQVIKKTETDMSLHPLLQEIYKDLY
# Sequence of Peroxisome proliferator-activated receptor gamma/Nuclear receptor coactivator 1 (Q15788 whole entry, further chain): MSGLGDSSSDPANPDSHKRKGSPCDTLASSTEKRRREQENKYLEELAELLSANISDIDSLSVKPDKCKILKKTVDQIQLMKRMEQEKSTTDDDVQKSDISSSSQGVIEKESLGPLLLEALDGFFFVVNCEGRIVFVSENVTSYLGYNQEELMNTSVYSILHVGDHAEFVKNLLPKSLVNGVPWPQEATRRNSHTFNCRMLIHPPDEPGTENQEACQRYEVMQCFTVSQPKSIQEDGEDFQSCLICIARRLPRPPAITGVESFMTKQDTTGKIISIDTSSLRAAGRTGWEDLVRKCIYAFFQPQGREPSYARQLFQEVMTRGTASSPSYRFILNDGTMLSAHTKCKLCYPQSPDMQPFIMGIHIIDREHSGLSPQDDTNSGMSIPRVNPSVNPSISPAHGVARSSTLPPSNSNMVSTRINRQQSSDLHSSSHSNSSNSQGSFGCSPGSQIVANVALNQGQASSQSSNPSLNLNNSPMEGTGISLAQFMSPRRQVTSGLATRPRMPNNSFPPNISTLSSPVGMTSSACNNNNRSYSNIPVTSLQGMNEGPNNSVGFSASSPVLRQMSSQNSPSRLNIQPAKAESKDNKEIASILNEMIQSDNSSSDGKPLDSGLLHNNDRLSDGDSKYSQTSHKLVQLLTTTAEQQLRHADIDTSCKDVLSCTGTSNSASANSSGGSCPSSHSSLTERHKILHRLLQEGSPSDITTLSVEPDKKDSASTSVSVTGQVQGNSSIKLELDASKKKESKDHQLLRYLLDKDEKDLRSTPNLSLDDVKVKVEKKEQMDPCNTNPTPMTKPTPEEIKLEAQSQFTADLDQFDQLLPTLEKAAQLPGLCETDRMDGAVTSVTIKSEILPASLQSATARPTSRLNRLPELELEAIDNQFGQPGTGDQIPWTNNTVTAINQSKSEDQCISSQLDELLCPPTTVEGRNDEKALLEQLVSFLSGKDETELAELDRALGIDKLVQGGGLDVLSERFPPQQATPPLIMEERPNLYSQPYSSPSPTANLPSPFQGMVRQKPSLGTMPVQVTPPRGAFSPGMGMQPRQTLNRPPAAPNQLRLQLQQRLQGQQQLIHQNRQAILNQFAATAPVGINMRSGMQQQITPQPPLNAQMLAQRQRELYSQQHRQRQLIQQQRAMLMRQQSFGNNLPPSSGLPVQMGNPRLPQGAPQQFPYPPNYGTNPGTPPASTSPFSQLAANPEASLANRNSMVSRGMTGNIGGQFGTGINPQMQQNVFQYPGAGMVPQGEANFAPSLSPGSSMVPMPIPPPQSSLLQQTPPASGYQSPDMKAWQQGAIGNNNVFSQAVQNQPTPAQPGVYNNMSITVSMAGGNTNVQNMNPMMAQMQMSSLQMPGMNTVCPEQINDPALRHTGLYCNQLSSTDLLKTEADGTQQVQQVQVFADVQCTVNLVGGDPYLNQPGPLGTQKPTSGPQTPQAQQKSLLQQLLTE
# Sequence of Peroxisome proliferator-activated receptor gamma/Nuclear receptor coactivator 3 (P37231 whole entry): as the sequence (P37231 whole entry) above
# Sequence of Peroxisome proliferator-activated receptor gamma/Nuclear receptor coactivator 3 (Q9Y6Q9 whole entry, further chain): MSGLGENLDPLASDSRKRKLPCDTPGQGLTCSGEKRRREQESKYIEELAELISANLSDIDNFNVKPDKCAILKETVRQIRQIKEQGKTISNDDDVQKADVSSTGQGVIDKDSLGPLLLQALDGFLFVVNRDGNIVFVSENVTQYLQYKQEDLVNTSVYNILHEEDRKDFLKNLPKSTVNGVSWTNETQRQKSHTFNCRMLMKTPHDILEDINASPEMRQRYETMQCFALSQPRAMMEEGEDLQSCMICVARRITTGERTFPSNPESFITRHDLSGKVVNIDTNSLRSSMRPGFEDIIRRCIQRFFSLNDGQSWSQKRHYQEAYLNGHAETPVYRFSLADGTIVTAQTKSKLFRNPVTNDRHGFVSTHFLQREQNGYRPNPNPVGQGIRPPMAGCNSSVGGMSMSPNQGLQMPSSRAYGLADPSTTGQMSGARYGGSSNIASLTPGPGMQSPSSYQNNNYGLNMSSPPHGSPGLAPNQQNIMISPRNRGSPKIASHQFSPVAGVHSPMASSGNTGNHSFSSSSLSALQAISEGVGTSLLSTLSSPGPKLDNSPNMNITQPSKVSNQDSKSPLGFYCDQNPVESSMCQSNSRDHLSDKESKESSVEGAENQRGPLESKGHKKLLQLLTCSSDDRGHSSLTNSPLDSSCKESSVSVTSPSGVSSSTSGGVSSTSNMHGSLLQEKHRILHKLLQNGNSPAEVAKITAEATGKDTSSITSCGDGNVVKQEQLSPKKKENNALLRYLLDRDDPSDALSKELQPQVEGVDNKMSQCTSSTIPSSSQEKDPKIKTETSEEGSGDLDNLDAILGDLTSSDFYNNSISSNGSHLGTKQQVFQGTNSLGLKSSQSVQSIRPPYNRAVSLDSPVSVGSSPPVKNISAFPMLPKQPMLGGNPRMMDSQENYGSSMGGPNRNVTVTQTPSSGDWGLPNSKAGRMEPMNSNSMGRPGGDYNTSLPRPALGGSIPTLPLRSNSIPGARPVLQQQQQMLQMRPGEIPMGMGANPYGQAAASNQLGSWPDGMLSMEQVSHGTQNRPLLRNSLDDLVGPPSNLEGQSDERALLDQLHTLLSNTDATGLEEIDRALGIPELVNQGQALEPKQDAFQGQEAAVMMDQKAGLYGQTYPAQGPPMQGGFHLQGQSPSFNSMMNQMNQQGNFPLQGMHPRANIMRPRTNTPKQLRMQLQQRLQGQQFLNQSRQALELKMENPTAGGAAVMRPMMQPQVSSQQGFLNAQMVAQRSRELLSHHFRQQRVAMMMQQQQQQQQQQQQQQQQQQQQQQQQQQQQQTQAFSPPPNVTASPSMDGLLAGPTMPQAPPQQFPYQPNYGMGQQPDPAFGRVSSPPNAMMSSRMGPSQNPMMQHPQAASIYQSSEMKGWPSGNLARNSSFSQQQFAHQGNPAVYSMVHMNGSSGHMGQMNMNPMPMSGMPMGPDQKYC
# T4 sequence (Q92731 whole entry): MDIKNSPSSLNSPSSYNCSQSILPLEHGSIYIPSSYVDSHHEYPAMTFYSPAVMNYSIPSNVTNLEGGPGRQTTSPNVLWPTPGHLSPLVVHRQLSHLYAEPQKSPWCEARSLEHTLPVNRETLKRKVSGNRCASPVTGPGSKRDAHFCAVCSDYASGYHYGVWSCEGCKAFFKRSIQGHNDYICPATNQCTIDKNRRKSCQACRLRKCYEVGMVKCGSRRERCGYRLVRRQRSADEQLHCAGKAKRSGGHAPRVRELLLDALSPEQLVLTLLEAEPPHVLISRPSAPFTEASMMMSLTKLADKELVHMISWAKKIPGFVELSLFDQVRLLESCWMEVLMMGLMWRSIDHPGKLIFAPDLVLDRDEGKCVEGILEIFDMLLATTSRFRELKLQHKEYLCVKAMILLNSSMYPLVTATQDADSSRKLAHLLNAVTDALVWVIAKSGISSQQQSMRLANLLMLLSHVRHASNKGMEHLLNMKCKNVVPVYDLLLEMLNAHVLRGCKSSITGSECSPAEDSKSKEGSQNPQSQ
smiles,measurement,setting,value
O=C(CCCN1CCC2(CC1)C(=O)N(CCc1ccc(N=C=S)cc1)CN2c1ccccc1)c1ccc(F)cc1,AC50,Cytochrome P450 2D6 [1],15.8 µM (inconclusive)
Cc1onc(-c2ccccc2)c1C(=O)N(Cc1ccco1)Cc1cccs1,EC50,Mucolipin-3,12.4 µM (not active)
same,EC50,Ion channel NompC,> 29.9 µM (not active)
O=C1NC(=S)NC(=O)C1=NNc1cc2c(cc1[N+](=O)[O-])OCO2,IC50,Aminopeptidase N,26.9 µM (active)
C[N+]1(C)C2CCC1CC(OC(=O)c1ccco1)C2 (configuration not stated),IC50,[2],7.77 µM (active)
same,IC50,[3],> 100 µM (inactive)
O=C(c1ccco1)N1CCN=C1SCc1cccnc1,AC50,[4],1.19 µM (active)
CCN(CCNS(=O)(=O)c1ccc2nc(O)sc2c1)c1ccccc1,AC50,[4],1.17 µM (active)
COc1ccc(S(=O)(=O)NC2CCCCC2)c(C)c1C,EC50,Mucolipin-3,> 3.32 µM (not active)
same,EC50,Ion channel NompC,> 29.9 µM (not active)
CC12C=C(/C=C/c3ccccc3)C(C)(C1)C(c1ccccc1)CC2=O (configuration not stated),AC50,Cytochrome P450 2D6 [1],3.16 µM (inconclusive)
same,AC50,Cytochrome P450 3A4,3.16 µM (inconclusive)
O=C(CN1CCN(c2ccc(O)cc2)CC1)Nc1cc(S(=O)(=O)N2CCOCC2)ccc1Cl,IC50,[2],> 100 µM (inactive)
same,IC50,[5],> 80 µM (inactive)
same,IC50,Large T antigen,17 µM (active)
same,IC50,[3],72.2 µM (active)
O=C(Nc1ccc2oc(-c3ccncc3)nc2c1)c1c(F)c(F)c(F)c(F)c1F,EC50,[6],28.9 µM (not active)
same,EC50,[7],25.8 µM (not active)
same,EC50,[8],25.6 µM (not active)
CC1(c2ccc(OC(F)F)cc2)NC(=O)N(CC(=O)Nc2ccc(S(N)(=O)=O)cc2)C1=O (configuration not stated),IC50,Aminopeptidase N,28.3 µM (active)
Cc1csc(C(C#N)C(=O)c2ccncc2)n1 (configuration not stated),EC50,[6],> 79.4 µM (not active)
same,EC50,[7],> 79.4 µM (not active)
same,IC50,Estrogen receptor beta [9],13.9 µM (active)
same,EC50,[8],> 79.4 µM (not active)
same,IC50,Estrogen receptor beta [10],> 109 µM (not active)
CCC(=O)NC(=S)Nc1ccc(NC(=S)NC(=O)c2ccccc2)cc1,EC50,[6],> 79.4 µM (not active)
same,EC50,[7],> 79.4 µM (not active)
same,EC50,[11],0.553 µM (active)
same,EC50,Streptococcus,38 µM (active)
same,EC50,[8],> 79.4 µM (not active)
same,EC50,[12],> 60 µM (not active)
same,EC50,Streptokinase A,> 150 µM (not active)
same,EC50,[13],1.23 µM (active)
CC1(C)Cc2cccc(Oc3ccc(S(=O)(=O)N4CCCCC4)cn3)c2O1,EC50,Mucolipin-3,9.27 µM (active)
same,EC50,Ion channel NompC,> 29.9 µM (not active)
O=C(C1CC1)N1CCc2cc(S(=O)(=O)N3CCN(c4ccc([N+](=O)[O-])cc4)CC3)ccc21,IC50,[14],6.5 µM (active)
same,IC50,Tumor necrosis factor,12.4 µM (active)
same,IC50,HEK293,> 20 µM (inactive)
same,IC50,[15],8.44 µM (active)
Cc1cc2nc3c(=O)[nH]c(=O)nc-3n(CC(O)C(O)C(O)CO)c2cc1C (configuration not stated) [RIBOFLAVIN],AC50,Cytochrome P450 2D6 [1],31.6 µM (inconclusive)
same,AC50,Cytochrome P450 2C19,6.31 µM (inconclusive)
same,AC50,Cytochrome P450 2D6 [16],12.6 µM (inconclusive)
